Data on two compounds can be found in patent US8951960B2, “Synergistic combination of DBNPA and polycyclic antibacterial peptide as biocide in bioethanol production” (Buckman Laboratories International, Inc., priority 2010, dated 2015).

The test system of one data set is Lactobacillus plantarum. Nature of the data set: Corn mash ethanol fermentation infected with L. plantarum, treated with nonoxidizing biocide. In kind it is cell-based. The following applies: fermentation conditions typical of fuel-ethanol industry. As to the method: (§1) Experiments were conducted to evaluate the effectiveness of a nonoxidizing biocide as an antimicrobial agent for control of Lactobacillus infections in ethanol fermentation. The nonoxidizing biocide was BRONAM® 20 (20% 2,2-dibromo-3-nitrilopropionamide). The lactobacilli was L. plantarum. The yeast was Saccharomyces cereviseae. Corn mashes containing approximately 30% (w/w) dry solids were used.
For slurry preparation, the moisture of ground corn was determined gravimetrically using a moisture balance by measuring the mass loss that occurred upon drying. The amount of corn, deionized (DI) water, and enzyme needed to prepare 160 g of corn slurry at a total dry solids concentration of 30% (w/w) for each replicate was determined. […]
For fermentation, once the mash was cooled, the entire contents (approximately 160 g) of each Labomat beaker were transferred to a sterile 250-ml Erlenmeyer flask. The masses of the mash and flasks were recorded, and the mass of mash transferred to the fermentation flasks was calculated. […]
The L. plantarum culture was prepared for inoculation by growing throughout the day in 100-ml of MRS broth. […] The initial concentration of the bacteria was determined by plating serial dilutions of the culture on MRS agar containing cycloheximide and incubating at 32° C. for 2 days before counting colonies. […]

Data set [1] can be described thus: Persistence of intact biocide under fermentation tank conditions. In kind it is physicochemical. The following applies: conditions in the fermentation tank; based on laboratory work. On the procedure:
Under the conditions in the fermentation tank, DBNPA is expected to last intact only about 1-2 hours, based on laboratory work. The stillage, i.e., fermented unevaporated product (post “beer tank”) of distillation, is centrifuged, and dried (e.g., about 1 hour at about 250-300° F.), then the mixture is pumped over to a final tank where it is called the DDGS. DDGS is about ⅓ mass of the starting raw material for corn. The chemistry of DBNPA is not expected to endure and survive the centrifugation and heat of drying prior to entering distillers dried grains with solubles (DDGS) stage. In the corn-to-ethanol process, for example, DBNPA is expected to degrade to carbon dioxide and water vapor, and, as such, would have low environmental impact. […] The application of DBNPA avoids the use of antibiotics, which can remain stable throughout the process. The use of DBNPA makes the use of antibiotics unnecessary. The use of DBNPA is more economical since the cost of antibiotics (as the only treatment widely employed) can be relatively high and costly to the fermentation. […]

The subject of data set [2] is yeast (Saccharomyces cerevisiae). Put plainly: Effect of biocide on fermentation yeast in corn fermentation. In kind it is cell-based. As to the method:
as §1
A 0.2-g/ml suspension of yeast (Saccharomyces cerevisiae; Ethanol Red; Fermentis, Marcq-en-Baroeul, France) was prepared in a sterile 250-ml flask. This suspension was incubated and mixed for 20 minutes at 40° C. before inoculation into the fermentation flasks. […]
Each flask was mixed with an overhead agitator and samples were collected for the following measurements: yeast cell counts, final concentrations of substrates (glucose, DP2, DP3, and DP4+, where “DPx” represent glucose oligomers with “x” subunits), fermentation products (ethanol, glycerol, lactic acid, and acetic acid), total dry solids, and dissolved dry solids, and the density of the beer liquid phase. […] Samples were prepared for yeast cell counts by diluting at a factor of 100 in deionized water and staining with methylene blue to estimate viability then counted microscopically using a hemacytometer. The final concentrations of substrates and fermentation products were determined by HPLC. […]

The next data set concerns Lactobacillus fermentans. Nature of the data set: Kull synergism test in 25% strength MRS broth, quantities producing endpoints. It counts as cell-based. The following applies: Nisin alone, 37° C., 24 hours. On the procedure:
Lactobacilli MRS broth (25% strength) was prepared and dispensed in 10 ml amounts into test tubes and autoclaved for 20 minutes at 121° C. The biocides were added to the test tubes in the desired concentrations, and then 100 microliters of an overnight broth of Lactobacillus fermentans were added to the respective test tubes and incubated at 37° C. for 24 hours.
When the sum of QA/Qa and QB/Qb is greater than one, antagonism is indicated and when the sum is equal to one, additivity is indicated. When the sum of this value is less than one, synergism exists.

As to `N#CC(Br)(Br)C(N)=O` [2,2-dibromo-3-nitrilopropionamide], the “effect on lactobacilli” value in the data set with Lactobacillus plantarum is on record as “kills the bacteria (lactobacilli)”. Further, in data set [1], the “time the biocide lasts intact” value was in the range of 1 to 2 h. In data set [2], the “effect on yeast” value is reported as “does not kill the yeast”.
With Nisin, the “Qa, concentration of Compound A acting alone which produced an endpoint” value in the data set on Lactobacillus fermentans (Example 2) and with Lactobacillus fermentans (Example 3) was 1.0 ppm each time.
